Reference: patent publication US8921267B2, “Safening 6-(trisubstituted phenyl)-4-amino-2-pyridinecarboxylate herbicide injury on cereal crops” (Dow AgroSciences LLC, priority 2008, dated 2014)

What was measured:
[1] = system: purple deadnettle (Lamium purpureum L; LAMPU); assay: Postemergence herbicidal activity, greenhouse, visual injury: purple deadnettle; type: in vivo; set-up: key: visual injury, 0–100%: 0 = no injury, 100 = complete kill
Experimental: (§1) Evaluation of Postemergence Herbicidal Safening in Cereal Crops
(§2) Seeds of the desired test plant species were planted in Sun Gro MetroMix® 306 planting mixture, which typically has a pH of 6.0 to 6.8 and an organic matter content of about 30 percent, in plastic pots with a surface area of 103.2 square centimeters (cm^2). When required to ensure good germination and healthy plants, a fungicide treatment and/or other chemical or physical treatment was applied. The plants were grown for 7-36 days (d) in a greenhouse with an approximate 14-hour (h) photoperiod which was maintained at about 18° C. during the day and 17° C. during the night. Nutrients and water were added on a regular basis and supplemental lighting was provided with overhead metal halide 1000-Watt lamps as necessary. The plants were employed for testing when they reached the second or third true leaf stage.
(§3) Weighed amounts of esters (methyl) or salts (TEA [triethylammonium], K [potassium]) of 4-amino-3-chloro-6-(4-chloro-2-fluoro-3-methoxyphenyl)pyridine-2-carboxylic acid (Compound 1) were dissolved in a volume of 97:3 volume/volume (v/v) acetone/dimethylsulfoxide (DMSO) to obtain stock solutions. […] The concentrated stock solutions were diluted with an aqueous mixture of 1.5% v/v of Agri-dex crop oil concentrate to provide the appropriate application rates. Compound requirements are based upon a 12 mL application volume at a rate of 187 liters per hectare (L/ha). Stocks solutions of the safeners were prepared following the same procedure. Spray solutions of the safeners and experimental compound mixtures were prepared by adding the stock solutions to the appropriate amount of dilution solution to form a 12 mL spray solution with active ingredients in two-way combinations. Formulated compounds were applied to the plant material with an overhead Mandel track sprayer equipped with 8002E nozzles calibrated to deliver 187 L/ha over an application area of 0.503 square meters (m^2) at a spray height of 18 inches (43 centimeters (cm)) above average plant canopy. Control plants were sprayed in the same manner with the solvent blank.
(§4) The treated plants and control plants were placed in a greenhouse as described above and watered by sub-irrigation to prevent wash-off of the test compounds. After 20-22 d, the condition of the test plants as compared with that of the control plants was determined visually and scored on a scale of 0 to 100 percent where 0 corresponds to no injury and 100 corresponds to complete kill.
(§5) Colby's equation was used to determine the herbicidal effects expected from the mixtures (Colby, S. R. Calculation of the synergistic and antagonistic response of herbicide combinations. Weeds 1967, 15, 20-22.).
(§6) The following equation was used to calculate the expected activity of mixtures containing two active ingredients, A and B: Expected=A+B−(A×B/100)
(§7) A=observed efficacy of active ingredient A at the same concentration as used in the mixture.
(§8) B=observed efficacy of active ingredient B at the same concentration as used in the mixture.

[2] = system: barley (HORVW); assay: Postemergence herbicidal safening, greenhouse, visual injury: barley (HORVW)
[3] = system: wheat (Triticum aestivum L; TRZAW); assay: Postemergence herbicidal safening, greenhouse, visual injury: wheat (TRZAW); type: in vivo
Experimental: as §1, §2, §3, §4, §5, §6, §7, §8

[4] = system: wheat (Triticum aestivum L; TRZAS); assay: Postemergence herbicidal safening, greenhouse, visual injury: wheat; type: in vivo
Experimental: as §1, §2, §3, §4, §5, §6, §7, §8

[5] = system: barley (Hordeum vulgare L; HORVS); assay: Postemergence herbicidal safening, greenhouse, visual injury: barley; type: in vivo
Experimental: as §1, §2, §3, §4, §5, §6, §7, §8

[6] = system: durum wheat (Triticum durum L; TRZDU); assay: Postemergence herbicidal safening, greenhouse, visual injury: durum wheat; type: in vivo
Experimental: as §1, §2, §3, §4, §5, §6, §7, §8

[7] = system: corn poppy (Papaver rhoeas L; PAPRH); assay: Postemergence herbicidal activity, greenhouse, visual injury: corn poppy; type: in vivo
Experimental: as §1, §2, §3, §4, §5, §6, §7, §8

[8] = Compound 1 Methyl ester 35 g/ha alone

O=C(O)C1=NOC(c2ccccc2)(c2ccccc2)C1 [Isoxadifen]
0: LAMPU Ob (Observed values) ([1]; safener 4.4 g/ha alone) | LAMPU Ob (Observed values) ([1]; safener 8.8 g/ha alone) | LAMPU Ob (Observed values) ([1]; safener 17.5 g/ha alone) | LAMPU Ob (Observed values) ([1]; safener 35 g/ha alone) | TRZAS Ob (Observed values) ([4]; safener 4.4 g/ha alone) | TRZAS Ob (Observed values) ([4]; safener 8.8 g/ha alone) | TRZAS Ob (Observed values) ([4]; safener 17.5 g/ha alone) | TRZAS Ob (Observed values) ([4]; safener 35 g/ha alone) | HORVS Ob (Observed values) ([5]; safener 4.4 g/ha alone) | HORVS Ob (Observed values) ([5]; safener 8.8 g/ha alone) | HORVS Ob (Observed values) ([5]; safener 17.5 g/ha alone) | HORVS Ob (Observed values) ([5]; safener 35 g/ha alone) | PAPRH Ob (Observed values) ([7]; safener 4.4 g/ha alone) | PAPRH Ob (Observed values) ([7]; safener 8.8 g/ha alone) | PAPRH Ob (Observed values) ([7]; safener 17.5 g/ha alone) | PAPRH Ob (Observed values) ([7]; safener 35 g/ha alone)
0%: HORVW Ob (Observed values) ([2]; safener 4.4 g/ha alone) | HORVW Ob (Observed values) ([2]; safener 8.8 g/ha alone) | HORVW Ob (Observed values) ([2]; safener 17.5 g/ha alone) | HORVW Ob (Observed values) ([2]; safener 35 g/ha alone) | TRZAW Ob (Observed values) ([3]; safener 4.4 g/ha alone) | TRZAW Ob (Observed values) ([3]; safener 8.8 g/ha alone) | TRZAW Ob (Observed values) ([3]; safener 17.5 g/ha alone) | TRZAW Ob (Observed values) ([3]; safener 35 g/ha alone) | TRZDU Ob (Observed values) ([6]; safener 4.4 g/ha alone) | TRZDU Ob (Observed values) ([6]; safener 8.8 g/ha alone) | TRZDU Ob (Observed values) ([6]; safener 17.5 g/ha alone) | TRZDU Ob (Observed values) ([6]; safener 35 g/ha alone)

COC(=O)c1nc(-c2ccc(Cl)c(OC)c2F)cc(N)c1Cl [1 Methyl ester]
33: HORVS Ob (Observed values) [5, 8]
97: LAMPU Ob (Observed values) [1, 8] | PAPRH Ob (Observed values) [7, 8]
42%: TRZDU Ob (Observed values) [6, 8]
50%: HORVW Ob (Observed values) [2, 8]
35%: TRZAW Ob (Observed values) [3, 8]
50: TRZAS Ob (Observed values) [4, 8]
